This assay addresses PKCδ-C1b (Mus musculus, UniProt P28867). In words: Kd measured in the peptide-phospholipid composition used for NMR. In kind it is binding.

PKCδ-C1b, sequence (P28867 231-281 limits assumed): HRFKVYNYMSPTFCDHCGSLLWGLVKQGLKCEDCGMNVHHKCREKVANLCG

The term Kd denotes a measure of binding affinity in units of concentration. Lower therefore signals tighter binding. Regarding `CCCC(=O)O[C@@H]1[C@@H](C)[C@@]2(O)[C@@H](C=C(CO)C[C@]3(O)C(=O)C(C)=C[C@@H]23)[C@@H]2C(C)(C)[C@]12OC(=O)CCC` [phorbol 12,13-dibutyrate], the affinity, expressed as Kd, was 1.5 nM.
